This is an account of results in patent publication US20220047617A1, “Nucleic acid nanocarrier drug, preparation method, pharmaceutical composition and use thereof” (BAI YAO ZHI DA (BEIJING) NANOBIO TECHNOLOGY CO., LTD., priority 2018, published 2022).

In one data set the test system is SKOV3 cells. Put plainly: Cytotoxicity in SKOV3 cells (CellTiter 96 AQueous One Solution), Embodiment 9. Type of data set: cell-based. As to conditions: Homo sapiens, SK-OV-3; SKOV3, 96 hours.
In a further data set the test system is U87MG cells. Put plainly: Cytotoxicity in U87MG cells (CellTiter-Glo), Embodiment 8. Type of data set: cell-based. The protocol:
Cytotoxicity Research of RNAh-Bio-670-Paclitaxel Nanoparticles in U87MG Cells
1) Cell Culturing and Plating
U87MG cells are cultured at 37 DEG C. and 5% CO2 in the EMEM basal medium in which 10% FBS and 1% PS are respectively added. The cell density used in the experiment is above 80%. The cells are collected, and centrifuged at 1000 rpm for 4 minutes, the medium is resuspended, the cell concentration is adjusted, and it is added to the 96-well plate in a volume of 5000 cells per 90 μL, and each group has 4 replicate wells.
2) Gradient Drug Concentration Preparation and Administration […]
Medium (untreated) control: only cells without compound treatment
Blank control: without cells, used for instrument zero calibration
3) Cell Culture after Administration
4) Cells Treated by Detection Kit
The well plate is brought to a room temperature in advance and stands for 30 minutes. 100 μL of a CellTiter-Glo® reagent is added to each well of the well plate and mixed for 2 minutes on a shaker to promote cell lysis. The Perkin Elmer Envision 2104 Multilabel Reader is used to read values and the values are recorded.
5) Experiment Data Acquisition and Processing
The acquired experiment data is analyzed and processed by using excel software, and GraphPad Prism 5 software is used for curve fitting analysis.
In general terms: Cellular ATP, detected with luciferase, serves as a proxy for viable cell number.

Data set [1] can be described thus: TM value detection by solubility curve method (SYBR Green I). It is filed as physicochemical. Conditions: extension fragment deformation+core short-sequence RNA nanoparticles; temperature at ½ RFUmax in 20 to 90 DEG C. taken as Tm. The protocol: A solubility curve method is used to detect TM values of the 7 groups of the extension fragment deformation+core short-sequence RNA nanoparticles, and the samples are consistent with the potential samples.
(1) After the sample is diluted with ultrapure water, 5 μg of the diluted sample is mixed with 2 μL of SYBR Green I dye (diluted by 1:200), a final volume is 20 μL, and the dilution concentration is as follows:
(2) It is incubated for 30 min in the dark at a room temperature; and
(3) On-machine detection is performed, a program is set to start at 20 DEG C., the temperature rises per second from 0.1 DEG C. to 95 DEG C., and reading is performed every 5 s.
Due to the particularity of the RNA samples, a temperature corresponding to ½ RFUmax in a range of 20 to 90 DEG C. is used as a sample Tm value in this test.
A solubility curve method is used to detect TM values of the 7 groups of the extension fragment deformation+core short-sequence DNA nanoparticles, and the samples are consistent with the potential samples.

A short description of data set [2]: Particle size measurement (DLS hydrodynamic size). It is filed as physicochemical. An excerpt: (3) Particle Size Measurement
1. Preparing a potential sample (conventional-sequence DNA self-assembly product D-7) and putting into a sample pool, opening a sample pool cover of an instrument, and placing the instrument;
2. opening software, and clicking a menu, so a manual measurement parameter setting dialog box appears;
3. setting a software detection parameter; and then
4. clicking Ok to complete the settings, when a measurement dialog box appears, clicking Start to start, a DLS measurement value result of a hydrodynamic size of the self-assembly product D-7 is shown below in Table 40:
(3) Particle size measurement
(2) opening software, and clicking a menu, so a manual measurement parameter setting dialog box appears;
(3) setting a software detection parameter; and then

Procedure for SKOV3 cells: 2) adjusting the cell density to 2.22×10^4/mL with a growth medium;
3) planting 90 μL/well of cell suspension into the 96-well plate, herein the number of cells per well in the plate is 2000;
4) placing the planted cell plate in the incubator at 37 DEG C. and incubating overnight;
5) performing 3.16-fold gradient dilution on the compound at 9 concentration points;
7) placing the cell culture plate in the incubator and continuously incubating for 96 hours;
8) placing the CellTiter 96® AQueous One Solution reagent at the room temperature and thawing for 90 minutes or thawing in a water bath at 37 DEG C., and placing at the room temperature and equilibrating for 30 minutes;
9) adding 20 μL/well of the CellTiter 96® AQueous One Solution reagent to the cell culture plate;
10) placing the cell culture plate in the incubator at 37 DEG C. and continuously incubating for 3 hours;
11) using a microplate reader to read a OD490 value of each well in the cell plate; and 12) data processing and analysis.
GraphPad Prism 5.0 software is used to process data graphically. In order to calculate the IC50, “S”-shaped nonlinear regression analysis is performed on the data to match an appropriate dosage-effect curve. A calculation formula of the survival rate is as follows, the IC50 may be automatically calculated in GraphPad Prism 5.0. […]

The IC50 is the concentration that inhibits the measured activity by half. `CC(=O)O[C@H]1C(=O)[C@@]2(C)[C@H]([C@H](OC(=O)c3ccccc3)[C@]3(O)C[C@H](OC(=O)[C@H](O)[C@@H](NC(=O)c4ccccc4)c4ccccc4)C(C)=C1C3(C)C)[C@]1(OC(C)=O)CO[C@@H]1C[C@@H]2O` [Paclitaxel, paclitaxel]: in the data set with SKOV3 cells, the IC50 is less than 1 nM. In addition, the “inhibition rates of the drugs to the cells” value in the data set with U87MG cells (drug concentration is 10 μM) amounted to 23.77%. Besides, the “cell survival rate (%)” value in the data set on U87MG cells (treatment time 72 h, 200 nM of each sample per well (method)) is 56.74%.

B1: R-20: extension fragment deformation+core short-sequence RNA nanoparticles, strands SEQ ID NO: 135-137, a-strand 3′-biotin, 2′F (nucleic acid)
chain 1: GCGGCGAGCGGCGACGAGCGUUGCGGCCGGAGGCCGG
chain 2: CCGGCCUCCGGCCGCUUCGCCGCCAGCCGCC
chain 3: GGCGGCAGGCGGCCAUAGCCGUCGCCGCUCGCCGC
modifications: RNA nanoparticle strands, 2'-fluoro modified, a-strand 3'-biotin, positions not given here
Take B1: the TM value in data set [1] came to 59.5 °C. Moreover, the “Mean particle size (nm)” value in data set [2] worked out at 7.110 nm.
